The values that follow come from ChEMBL document CHEMBL4422655, “Osthenol, a prenylated coumarin, as a monoamine oxidase A inhibitor with high selectivity” (Bioorg Med Chem Lett, 2019).

Assay [1] concerns the target T1, Amine oxidase [flavin-containing] A (Mus musculus, UniProt Q64133).
T1 sequence (Q64133 whole entry): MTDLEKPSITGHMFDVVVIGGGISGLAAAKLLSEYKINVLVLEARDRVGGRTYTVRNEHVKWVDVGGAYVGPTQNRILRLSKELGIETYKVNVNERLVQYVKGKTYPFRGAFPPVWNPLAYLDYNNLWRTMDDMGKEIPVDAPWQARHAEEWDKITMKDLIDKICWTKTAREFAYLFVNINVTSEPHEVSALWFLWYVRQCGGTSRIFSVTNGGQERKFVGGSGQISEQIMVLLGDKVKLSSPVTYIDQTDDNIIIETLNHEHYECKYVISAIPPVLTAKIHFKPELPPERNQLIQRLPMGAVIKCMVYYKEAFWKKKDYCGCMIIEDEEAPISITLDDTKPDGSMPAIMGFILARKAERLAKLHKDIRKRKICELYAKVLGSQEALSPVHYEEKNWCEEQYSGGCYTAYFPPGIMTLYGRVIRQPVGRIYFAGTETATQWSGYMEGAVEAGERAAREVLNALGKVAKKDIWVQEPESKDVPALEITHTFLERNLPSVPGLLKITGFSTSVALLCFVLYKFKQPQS
Briefly: Inhibition of MAO-A in mouse brain mitochondrial fraction using kynuramine as substrate after 30 mins by fluorometric analysis.

Assay [2] deals with T2, Amine oxidase [flavin-containing] A (Homo sapiens, UniProt P21397).
T2 sequence (P21397 whole entry): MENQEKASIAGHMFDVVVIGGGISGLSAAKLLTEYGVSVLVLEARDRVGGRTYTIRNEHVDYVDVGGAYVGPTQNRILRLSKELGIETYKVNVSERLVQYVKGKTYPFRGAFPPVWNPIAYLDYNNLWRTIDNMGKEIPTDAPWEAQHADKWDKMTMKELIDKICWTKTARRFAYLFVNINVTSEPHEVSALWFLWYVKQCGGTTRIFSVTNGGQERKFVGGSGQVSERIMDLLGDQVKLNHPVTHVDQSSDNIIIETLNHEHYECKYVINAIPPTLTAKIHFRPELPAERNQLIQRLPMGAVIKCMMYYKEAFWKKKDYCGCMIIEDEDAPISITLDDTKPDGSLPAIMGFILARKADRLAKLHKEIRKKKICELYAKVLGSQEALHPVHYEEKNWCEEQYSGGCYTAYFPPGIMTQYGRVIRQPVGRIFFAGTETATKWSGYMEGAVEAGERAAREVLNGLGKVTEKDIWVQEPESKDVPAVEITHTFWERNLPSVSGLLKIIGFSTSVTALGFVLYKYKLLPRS
Nature of the assay: biochemical.

The species entered for assay [3] is Homo sapiens. Nature of the assay: Selectivity index, ratio of IC50 for human recombinant MAO-B expressed in baculovirus infected BTI insect cells to IC50 for human recombinant MAO-A expressed in baculovirus infected BTI insect cells.
The target of assay [4] is T3, Amine oxidase [flavin-containing] B (Homo sapiens, UniProt P27338).
T3 sequence (P27338 whole entry): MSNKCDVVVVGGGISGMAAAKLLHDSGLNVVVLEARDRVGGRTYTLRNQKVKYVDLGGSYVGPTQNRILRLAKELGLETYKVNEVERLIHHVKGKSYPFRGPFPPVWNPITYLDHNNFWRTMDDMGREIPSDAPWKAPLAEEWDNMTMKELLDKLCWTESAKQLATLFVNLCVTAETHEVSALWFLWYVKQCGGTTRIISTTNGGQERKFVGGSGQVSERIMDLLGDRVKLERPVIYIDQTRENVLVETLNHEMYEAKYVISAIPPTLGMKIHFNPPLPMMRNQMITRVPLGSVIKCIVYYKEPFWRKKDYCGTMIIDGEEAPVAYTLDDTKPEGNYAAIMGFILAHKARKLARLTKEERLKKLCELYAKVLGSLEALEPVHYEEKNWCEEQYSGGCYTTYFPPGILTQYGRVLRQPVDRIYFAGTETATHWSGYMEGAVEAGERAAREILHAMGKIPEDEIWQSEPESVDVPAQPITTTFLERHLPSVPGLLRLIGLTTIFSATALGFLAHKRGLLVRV
Nature of the assay: biochemical. The class given is cell-based.

The target in assay [5] is T2, Amine oxidase [flavin-containing] A. Nature of the assay: Inhibition of human recombinant MAO-A expressed in baculovirus infected BTI insect cells using kynuramine as substrate assessed as residual activity at 10 uM after 20 mins by spectrophotometric analysis relative to control. To be noted: read-out: Activity.
In assay [6] the target is T4, Amine oxidase [flavin-containing] A (Rattus norvegicus, UniProt P21396).
T4 sequence (P21396 whole entry): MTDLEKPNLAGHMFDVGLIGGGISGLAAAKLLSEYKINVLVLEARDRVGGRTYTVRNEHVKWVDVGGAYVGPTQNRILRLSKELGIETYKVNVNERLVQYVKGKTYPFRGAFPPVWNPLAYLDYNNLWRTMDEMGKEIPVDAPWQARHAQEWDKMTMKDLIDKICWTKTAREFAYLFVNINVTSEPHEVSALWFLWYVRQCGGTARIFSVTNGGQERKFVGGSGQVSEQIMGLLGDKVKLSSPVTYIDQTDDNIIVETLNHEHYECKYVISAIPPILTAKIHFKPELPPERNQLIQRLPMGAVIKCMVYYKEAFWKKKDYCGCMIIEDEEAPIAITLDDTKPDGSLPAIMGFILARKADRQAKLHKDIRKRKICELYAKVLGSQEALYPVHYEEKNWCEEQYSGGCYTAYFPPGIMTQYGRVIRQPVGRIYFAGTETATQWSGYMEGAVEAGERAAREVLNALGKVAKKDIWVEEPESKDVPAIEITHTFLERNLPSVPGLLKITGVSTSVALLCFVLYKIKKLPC
Nature of the assay: Inhibition of MAO-A in Sprague-Dawley rat brain mitochondrial fraction after 10 mins in presence of [14C]5-hydroxytryptamine by liquid scintillation analysis.

Assay [7] concerns the target T2, Amine oxidase [flavin-containing] A. Nature of the assay: biochemical. The source holds these as a separate data set.
For assay [8], the target named is Acetylcholinesterase (Electrophorus electricus, UniProt O42275). Briefly: Inhibition of electric eel AChE using acetylthiocholine iodide as substrate preincubated for 15 mins followed by substrate addition by Ellman's method.
Assay [9] addresses T3, Amine oxidase [flavin-containing] B. Briefly: Inhibition of human recombinant MAO-B expressed in baculovirus infected BTI insect cells using benzylamine as substrate assessed as residual activity at 10 uM after 30 mins by spectrophotometric analysis relative to control. To be noted: 0.5 h, read-out: Activity.
Assay [10] deals with T2, Amine oxidase [flavin-containing] A. Nature of the assay: Irreversible inhibition of human recombinant MAO-A expressed in baculovirus infected BTI insect cells assessed as residual activity at 0.01 uM incubated for 30 mins using kynuramine as substrate by spectrophotometric analysis relative to control. To be noted: 0.5 h, read-out: Activity.
For assay [11] the target is unchanged. Briefly: Irreversible inhibition of human recombinant MAO-A expressed in baculovirus infected BTI insect cells assessed as residual activity at 0.01 uM incubated for 30 mins followed by dialysis using kynuramine as substrate by spectrophotometric analysis relative to control. To be noted: 0.5 h, read-out: Activity.
For assay [12] the target is unchanged. Briefly: Inhibition of human recombinant MAO-A expressed in baculovirus infected BTI-TN-5B1-4 insect cells using p-tyramine as substrate after 15 mins by resorufin dye-based spectrometric analysis.
Assay [13] has the same target. Nature of the assay: Reversible inhibition of human recombinant MAO-A expressed in baculovirus infected BTI insect cells assessed as residual activity at 1.5 uM incubated for 30 mins using kynuramine as substrate by spectrophotometric analysis relative to control. To be noted: 0.5 h, read-out: Activity.
For assay [14] the target is unchanged. Briefly: Reversible inhibition of human recombinant MAO-A expressed in baculovirus infected BTI insect cells assessed as residual activity at 1.5 uM incubated for 30 mins followed by dialysis using kynuramine as substrate by spectrophotometric analysis relative to control. To be noted: 0.5 h, read-out: Activity.
Assay [15] has the same target. Briefly: Inhibition of human MAO-A using kynuramine as substrate after 30 mins by spectrophotometric analysis.
The species entered for assay [16] is Homo sapiens. Briefly: Selectivity index, ratio of IC50 for human recombinant MAO-B to IC50 for human recombinant MAO-A.
The target in assay [17] is T2, Amine oxidase [flavin-containing] A. Nature of the assay: Reversible inhibition of human recombinant MAO-A expressed in baculovirus infected BTI insect cells assessed as residual activity at 2 uM incubated for 30 mins using kynuramine as substrate by spectrophotometric analysis relative to control. As to conditions: 0.5 h, read-out: Activity.
Assay [18] shares this target. Briefly: Reversible inhibition of human recombinant MAO-A expressed in baculovirus infected BTI insect cells assessed as residual activity at 2 uM incubated for 30 mins followed by dialysis using kynuramine as substrate by spectrophotometric analysis relative to control. To be noted: 0.5 h, read-out: Activity.

Sequence of Acetylcholinesterase (O42275 whole entry): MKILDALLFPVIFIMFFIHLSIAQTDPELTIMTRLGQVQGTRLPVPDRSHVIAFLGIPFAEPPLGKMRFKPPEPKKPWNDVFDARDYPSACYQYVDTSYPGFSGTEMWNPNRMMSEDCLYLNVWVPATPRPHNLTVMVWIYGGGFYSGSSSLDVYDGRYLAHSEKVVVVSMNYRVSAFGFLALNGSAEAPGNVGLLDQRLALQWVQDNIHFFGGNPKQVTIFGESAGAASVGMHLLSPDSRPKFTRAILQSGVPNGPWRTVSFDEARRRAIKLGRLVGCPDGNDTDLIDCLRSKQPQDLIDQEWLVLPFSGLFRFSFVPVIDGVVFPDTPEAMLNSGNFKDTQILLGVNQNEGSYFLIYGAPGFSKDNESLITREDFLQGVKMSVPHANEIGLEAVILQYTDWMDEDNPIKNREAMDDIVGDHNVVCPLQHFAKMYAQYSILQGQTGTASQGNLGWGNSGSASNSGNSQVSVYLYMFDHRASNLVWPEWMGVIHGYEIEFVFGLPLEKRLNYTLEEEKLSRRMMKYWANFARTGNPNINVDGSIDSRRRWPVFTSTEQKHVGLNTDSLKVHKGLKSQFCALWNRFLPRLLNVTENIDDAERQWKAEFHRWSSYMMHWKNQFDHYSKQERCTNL

`C=C(C)C(O)CC/C(C)=C/COc1ccc2ccc(=O)oc2c1` (stereo not drawn) showed an IC50 in assay [1] of 1.3 µM.
`O=c1ccc2ccc3occc3c2o1` [ANGELICIN]: the IC50 in assay [2] came to 0.88 µM; in [4], 2.73 µM; in assay [6], 9 µM; in [8], 25.4 µM. The Ratio IC50 in assay [3] turned out to be 3.1. Also, the activity at 10 µM in [5] was determined as 12%; in [9], 27.2%. Moreover, in assay [7], the Ki came out at 0.46 µM.
`O=c1ccc2c(ccc3ccoc32)o1` [BAKUCHICIN]: the IC50 in assay [2] came out at 1.78 µM; in assay [4], 5.44 µM; in [8], 35.7 µM. The Ratio IC50 in assay [3] stood at 3.1. The activity at 10 µM in assay [5] was 18.6%; in assay [9], 37.8%.
`C#CCN(C)CCCOc1ccc(Cl)cc1Cl` [CLORGILINE]: the activity at 0.01 µM stood at 20.4% in [10] and 23.3% in assay [11].
With `Oc1ccc(/C=C/c2cc(O)cc3c2[C@@H](c2cc(O)cc(O)c2)[C@H](c2ccc(O)cc2)O3)cc1` [EPSILON-VINIFERIN], in assay [12], the IC50 was 19.6 µM.
Take `CC(C)=CCOc1c2ccoc2cc2oc(=O)ccc12` [ISOIMPERATORIN]: the IC50 was greater than 20 µM in [2], greater than 60 µM in assay [4] and 25.6 µM in assay [8]. For the same molecule, the activity at 10 µM came to 76.2% in assay [5] and 78.3% in [9].
`COc1ccc(-c2oc3cc(O)cc(O)c3c(=O)c2O)cc1` [KAEMPFERIDE] returned an IC50 in [2] of 0.19 µM. The Ratio IC50 in [3] was 0.89.
Take `CC(C)=CCc1c(O)ccc2ccc(=O)oc12` [OSTHENOL]: the IC50 was 0.74 µM in [2], greater than 60 µM in assay [4] and 25.3 µM in assay [8]. The activity at 1.5 µM in assay [13] worked out at 23.7%; in [14], 90.7%. Moreover, the Ratio IC50 in assay [3] was greater than 81.1. In addition, the results for the activity at 10 µM in assay [5] and in [9] were 9.9% and 84.7%, respectively. Moreover, the Ki in [7] was determined as 0.26 µM.
Consider `O=c1ccc2cc3ccoc3cc2o1` [PSORALEN], for which the IC50 in assay [2] was greater than 20 µM; in assay [4], greater than 60 µM; in assay [8], 29.5 µM. Moreover, the activity at 10 µM in assay [5] was 71%; in assay [9] it was 78.3%.
Take `COc1cc(O)c2c(=O)c(O)c(-c3ccc(O)cc3)oc2c1` [RHAMNOCITRIN]: in [15], the IC50 amounted to 0.051 µM. Also, the Ratio IC50 in assay [16] was 58.2.
As to `COc1cc2ccc(=O)oc2cc1O` [SCOPOLETIN], the IC50 is greater than 20 µM in assay [2], greater than 60 µM in assay [4] and 35.8 µM in assay [8]. Moreover, the results for the activity at 10 µM in [5] and in assay [9] were 97% and 97.7%, respectively.
For the molecule `Cc1cccc(N2CC(CO)OC2=O)c1` (stereo not drawn) [TOLOXATONE], the activity at 2 µM in assay [17] was found to be 28.4%; in assay [18] it was 88.6%.
